Test systems include CCRF-CEM; SF-268; SK-MEL-5; SK-OV-3; MDA-N; RPMI-8226; M14; EKVX; SF-295; NCI-H522; ACHN; K562; 786-0; LOX IMVI; SK-MEL-2; Hs-578T; SW-620; SR; MDA-MB-231.
Assay in all cases: NCI-60 cell line screen, 48 h

These results are taken from ChEMBL document CHEMBL1201862, “PubChem BioAssay data set” (2004).

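Results reflect a 48-hour exposure of cells in 96-well plates to compound at five concentrations. The concentration for 50% growth inhibition is given as GI50.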 Active and inactive are the calls of the source. Rule as the data show it: active = GI50 up to about 1.1 µM and inactive = higher.

`NC(=S)N1N=C(c2ccccc2O)CC1c1ccccc1` (configuration not stated): the GI50 with CCRF-CEM was 7.94 µM (inactive); in the assay on SF-268, 20.8 µM (inactive); in the assay with SK-MEL-5, 10.2 µM (inactive); in the assay with SK-OV-3, 13.9 µM (inactive); in the assay on MDA-N, 2.83 µM (inactive); in the assay on RPMI-8226, 11.6 µM (inactive). Also, the GI50 is 11.3 µM (inactive) with M14; 20.4 µM (inactive) in the assay on EKVX; 6.43 µM (inactive) in the assay on SF-295; 3.99 µM (inactive) in the assay on NCI-H522; 23.3 µM (inactive) with ACHN; 3.85 µM (inactive) in the assay on K562. Also, the GI50 in the assay on 786-0 is 21.1 µM (inactive); with LOX IMVI, 16.9 µM (inactive); in the assay on SK-MEL-2, 5.25 µM (inactive); in the assay on Hs-578T, 20.7 µM (inactive); with SW-620, 9.59 µM (inactive).

For `N=C(N)N/N=C/c1c(-c2cccc([N+](=O)[O-])c2)nc2n1CCS2`, the GI50 was 12.7 µM (inactive) with SR; 22.2 µM (inactive) with CCRF-CEM; 19.6 µM (inactive) with SF-268; 14.8 µM (inactive) in the assay with SK-MEL-5; 16.7 µM (inactive) in the assay on MDA-MB-231; 34.9 µM (inactive) in the assay with RPMI-8226. The GI50 in the assay on M14 was 24.4 µM (inactive); in the assay with EKVX it was 25.4 µM (inactive); in the assay on SF-295, 26.2 µM (inactive); in the assay with NCI-H522, 16.3 µM (inactive); with ACHN it was 17.7 µM (inactive); in the assay on K562, 11.2 µM (inactive). For the same molecule, the GI50 was 29.3 µM (inactive) in the assay on 786-0; 16.6 µM (inactive) in the assay on LOX IMVI; 17.2 µM (inactive) in the assay on SK-MEL-2; 7.1 µM (inactive) in the assay with Hs-578T; 5.45 µM (inactive) in the assay with SW-620.

Consider `Cc1oncc1/N=C1\C=C(O)C(=O)c2ccccc21`, for which the GI50 in the assay with SR is 4.88 µM (inactive); in the assay with CCRF-CEM, 3.38 µM (inactive); with SF-268 it was 10.5 µM (inactive); in the assay with SK-MEL-5, 1.95 µM (inactive); in the assay on SK-OV-3, 15.7 µM (inactive); in the assay with MDA-MB-231, 8.47 µM (inactive). Moreover, the GI50 is 7.64 µM (inactive) in the assay with RPMI-8226; 6.1 µM (inactive) in the assay with M14; 14.6 µM (inactive) with EKVX; 7.66 µM (inactive) in the assay on SF-295; 5.41 µM (inactive) in the assay on NCI-H522; 4.82 µM (inactive) in the assay with ACHN. Also, the GI50 was 6.14 µM (inactive) with K562; 18.2 µM (inactive) in the assay on 786-0; 2.73 µM (inactive) in the assay on LOX IMVI; 9.12 µM (inactive) in the assay on Hs-578T; 4.4 µM (inactive) in the assay with SW-620.

Consider `Cc1cc(-c2ccccc2)nc2oc(=O)n(C)c12`, for which the GI50 with CCRF-CEM was > 100 µM (inactive); with SF-268, > 100 µM (inactive); in the assay with SK-MEL-5, > 100 µM (inactive); in the assay with SK-OV-3, > 100 µM (inactive); with MDA-N, > 100 µM (inactive); in the assay with MDA-MB-231 it was 64.9 µM (inactive). For the same molecule, the GI50 with M14 was > 100 µM (inactive); with EKVX it was 42.8 µM (inactive); with SF-295, 39.5 µM (inactive); in the assay on NCI-H522 it was > 100 µM (inactive); in the assay on ACHN, > 100 µM (inactive); in the assay with K562, > 100 µM (inactive). Further, the GI50 is 37.8 µM (inactive) in the assay with 786-0; > 100 µM (inactive) in the assay on LOX IMVI; 79.3 µM (inactive) with SK-MEL-2; > 100 µM (inactive) with Hs-578T; > 100 µM (inactive) with SW-620.

For `C(=N\c1ccc(-c2nc3ccccc3s2)cc1)/c1cccs1`, the GI50 is 39.6 µM (inactive) in the assay on SR; 0.617 µM (active) in the assay with CCRF-CEM; 34.8 µM (inactive) in the assay with SF-268; 30.4 µM (inactive) with SK-MEL-5; 81.8 µM (inactive) in the assay with SK-OV-3; 39.4 µM (inactive) in the assay with MDA-N. The GI50 with RPMI-8226 was 33.4 µM (inactive); in the assay with M14, 69 µM (inactive); in the assay on EKVX, 45.2 µM (inactive); with SF-295, 23.2 µM (inactive); in the assay on NCI-H522 it was 32.1 µM (inactive); in the assay with ACHN, 35.8 µM (inactive). Moreover, the GI50 is 34.8 µM (inactive) in the assay with K562; 48.2 µM (inactive) in the assay on 786-0; 46.1 µM (inactive) with LOX IMVI; 38.2 µM (inactive) in the assay on SK-MEL-2; 41.7 µM (inactive) in the assay on Hs-578T; 75.3 µM (inactive) in the assay on SW-620.

Consider `CC[C@H](C)[C@H](NC(=O)N(CCC#N)CCN(CCN(C(=O)N[C@@H](Cc1ccccc1)C(=O)OC)c1ccccc1)C(=O)N[C@H](C(=O)OC)C(C)C)C(=O)OC`, for which the GI50 is 22.8 µM (inactive) in the assay on CCRF-CEM; 21.5 µM (inactive) in the assay on SF-268; 20.5 µM (inactive) in the assay on SK-MEL-5; 20.9 µM (inactive) with SK-OV-3; 16.5 µM (inactive) in the assay with MDA-N; 18 µM (inactive) in the assay on MDA-MB-231. Besides, the GI50 in the assay with RPMI-8226 is 10.7 µM (inactive); in the assay on M14 it was 20.5 µM (inactive); with EKVX, 29.7 µM (inactive); with SF-295 it was 18.1 µM (inactive); with ACHN, 13.8 µM (inactive); with 786-0, 4.68 µM (inactive). Moreover, the GI50 is 20.7 µM (inactive) in the assay on LOX IMVI, 20 µM (inactive) in the assay on SK-MEL-2, 23.7 µM (inactive) with Hs-578T and 21.4 µM (inactive) in the assay with SW-620.

`O=c1[nH]c(=O)n(Cc2ccccc2CO)cc1Sc1ccccc1`: the GI50 was 25.4 µM (inactive) with SR; 28.7 µM (inactive) in the assay on CCRF-CEM; 22.8 µM (inactive) in the assay on SF-268; 10.1 µM (inactive) in the assay on SK-MEL-5; 42.4 µM (inactive) in the assay on SK-OV-3; 11.8 µM (inactive) with MDA-MB-231. Besides, the GI50 with M14 is 19.7 µM (inactive); in the assay on EKVX, 21 µM (inactive); in the assay on SF-295, 30 µM (inactive); with NCI-H522, 1.87 µM (inactive); in the assay with ACHN, 26.5 µM (inactive); in the assay with K562 it was 6.78 µM (inactive). For the same molecule, the GI50 was 47.2 µM (inactive) in the assay on 786-0, 19.3 µM (inactive) with SK-MEL-2, 23.1 µM (inactive) in the assay on Hs-578T and 36.9 µM (inactive) with SW-620.

Take `O=C(Nc1cccc(F)c1)c1cc2ccc(O)cc2o/c1=N\c1ccccc1F`: the GI50 was 2.47 µM (inactive) with SR; 2.47 µM (inactive) in the assay on CCRF-CEM; 2.74 µM (inactive) in the assay on SF-268; 2.2 µM (inactive) in the assay with SK-MEL-5; 5.36 µM (inactive) in the assay on SK-OV-3; 4.82 µM (inactive) in the assay with MDA-N. Moreover, the GI50 in the assay on RPMI-8226 was 1.69 µM (inactive); in the assay with M14 it was 5.32 µM (inactive); in the assay on EKVX, 2.18 µM (inactive); in the assay on SF-295, 8.39 µM (inactive); in the assay with NCI-H522 it was 2.09 µM (inactive); in the assay on ACHN it was 3.34 µM (inactive). Further, the GI50 in the assay with K562 was 2.01 µM (inactive); in the assay with 786-0 it was 4.99 µM (inactive); with LOX IMVI it was 2.96 µM (inactive); in the assay with SK-MEL-2, 4.8 µM (inactive); in the assay with Hs-578T it was 1.57 µM (inactive); in the assay on SW-620, 4.7 µM (inactive).

Regarding `O=C(CSCC(=O)N/N=C\c1cc(Cl)cc(Cl)c1O)N/N=C\c1cc(Cl)cc(Cl)c1O`, the GI50 was 1.77 µM (inactive) in the assay on SR; 0.294 µM (active) with CCRF-CEM; 2.32 µM (inactive) in the assay on SF-268; 3.42 µM (inactive) in the assay on SK-MEL-5; 8.55 µM (inactive) in the assay on SK-OV-3; 2.48 µM (inactive) in the assay on MDA-MB-231. The GI50 in the assay on M14 was 4.93 µM (inactive); in the assay with EKVX, 4.45 µM (inactive); with SF-295, 6.53 µM (inactive); in the assay on NCI-H522, 1.71 µM (inactive); in the assay on ACHN it was 0.204 µM (active); with K562, 2.37 µM (inactive). For the same molecule, the GI50 in the assay with 786-0 was 6.46 µM (inactive); with LOX IMVI, 1.38 µM (inactive); in the assay with SK-MEL-2 it was 2.51 µM (inactive); with Hs-578T it was 2.08 µM (inactive); in the assay with SW-620 it was 3.79 µM (inactive).

Take `O=S(=O)(N1CCCCN(S(=O)(=O)C(F)(F)F)CCCN(S(=O)(=O)C(F)(F)F)CCCN(S(=O)(=O)C(F)(F)F)CCCCN(S(=O)(=O)C(F)(F)F)CCCN(S(=O)(=O)C(F)(F)F)CCC1)C(F)(F)F`: the GI50 in the assay on CCRF-CEM was > 100 µM (inactive); with SF-268 it was 31.1 µM (inactive); in the assay on SK-MEL-5 it was 35 µM (inactive); in the assay on SK-OV-3, > 100 µM (inactive); in the assay on MDA-N, > 100 µM (inactive); in the assay on MDA-MB-231 it was > 100 µM (inactive). Also, the GI50 in the assay on M14 is 63.7 µM (inactive); with EKVX, 72.3 µM (inactive); in the assay with SF-295, 22.9 µM (inactive); with NCI-H522, 35.2 µM (inactive); in the assay with ACHN it was > 100 µM (inactive); in the assay with K562, > 100 µM (inactive). The GI50 in the assay with 786-0 is 18.2 µM (inactive); with LOX IMVI it was 80.5 µM (inactive); with SK-MEL-2, 76.4 µM (inactive); in the assay with Hs-578T, 30.3 µM (inactive); in the assay on SW-620 it was > 100 µM (inactive).

On to `COc1c2c(c(CC=C(C)C)c3oc(=O)c(-c4ccc(O)cc4)c(O)c13)OC(C)(C)C=C2` [LONCHOCARPIC ACID], for which the GI50 in the assay on SR is 18.5 µM (inactive); with CCRF-CEM it was 23.7 µM (inactive); with SF-268 it was 14.1 µM (inactive); with SK-MEL-5 it was 12.8 µM (inactive); in the assay with MDA-MB-231, 24.8 µM (inactive); in the assay on RPMI-8226, 19.5 µM (inactive). Besides, the GI50 is 25.8 µM (inactive) in the assay with M14; 22.3 µM (inactive) with EKVX; 28.2 µM (inactive) with SF-295; 23 µM (inactive) in the assay with NCI-H522; 22.1 µM (inactive) in the assay with ACHN; 29.5 µM (inactive) in the assay on K562. Further, the GI50 is 25.5 µM (inactive) in the assay on 786-0; 34.4 µM (inactive) in the assay with LOX IMVI; 19.6 µM (inactive) in the assay on SK-MEL-2; 36.2 µM (inactive) with Hs-578T; 44.1 µM (inactive) in the assay on SW-620.
